Source: patent publication US20190175528A1, “INHIBITION OF BIOFILM ORGANISMS” (NovaBiotics Limited, priority 2009, published 2019)
Numbered stars: 1 amine (or outer) side, 2 acyl side, 3 side chain; on linkers, the order of the positions; unused ones are H or OH. Peptide text beside a SMILES is read from it. Cysteamide = C(CS[*:3])N[*:1]

Legend:
P. aeruginosa DSMZ1299 [1] = settings: DSMZ1299, pH 7
[2] = system: P. aeruginosa ATCC BAA-47; settings: for MBC at pH5.5, P. aeruginosa ATCCBAA-47 / MBC pH5.5, 320 mM NaCl, P. aeruginosa ATCCBAA-47: ATCC BAA-47, pH 5.5; for MBC following MIC at pH 7, P. aeruginosa ATCCBAA-47: ATCC BAA-47, pH 7
S. aureus ATCC25923 [3] = settings: ATCC25923, pH 7
S. aureus ATCC25923 [4] = type: cell-based, Staphylococcus aureus; settings: ATCC25923, 24 h
Description: (§1) The bacterial inoculum was established by the dilution method from actively-growing cultures in Mueller-Hinton broth, standardized with 0.5 McFarland turbidity standard as described in the CLSI method M26-A.
(§2) To determine the prevention of biofilm formation, both the bacterial inoculum and the antimicrobial agents were added simultaneously to the plates. The plates were incubated at 37° C. for 24 h and the optical density was read at 625 nm on a microtitre plate reader (BioTek Powerwave XS, Winooski, USA). The MIC was obtained as the lowest concentration of antimicrobial showing total inhibition of bacterial growth.

[5] = system: S. aureus DSM 11729 (MRSA); settings: for MBC at pH5.5, S. aureus 11729 / MBC pH5.5, 320 mM NaCl, S. aureus 11729: DSM 11729, pH 5.5; for MBC following MIC at pH 7, S. aureus DSMZ11729: DSM 11729, pH 7
S. epidermidis ATCC12228 [6] = settings: ATCC12228, pH 7
S. epidermidis ATCC12228 [7] = type: cell-based, Staphylococcus epidermidis; settings: ATCC12228, 24 h
Description: as §1, §2

P. aeruginosa DSMZ1128 [8] = type: cell-based, Pseudomonas aeruginosa; settings: DSMZ1128, 24 h
Description: as §1, §2

P. aeruginosa DSMZ1299 [9] = type: cell-based, Pseudomonas aeruginosa; settings: for MIC at pH 7, P. aeruginosa D5MZ1299: DSMZ1299, 24 h
Description: as §1, §2

[10] = system: S. aureus DSM 11729 (MRSA); experiment: microbe, parasite or virus in culture; type: cell-based, Staphylococcus aureus; settings: DSM 11729, 24 h; for MIC pH5.5, 320 mM NaCl, S. aureus 11729 / MIC pH5.5, S. aureus 11729: pH 5.5
Description: as §1
(§3) To determine the prevention of biofilm formation, both the bacterial inoculum and the antimicrobial agents were added simultaneously to the plates. The plates were incubated at 37° C. for 24 h and the optical density was read at 625 nm on a microtitre plate reader (BioTek Powerwave XS, Winooski, USA). The MIC was obtained as the lowest concentration of antimicrobial showing total inhibition of bacterial growth. […]
(§4) FIC=MICA[combination]/MICA[alone]+MICB[combination]/MICB[alone] […]
(§5) In order to assess for the prevention of biofilm formation by both Gram-positive and Gram-negative bacteria, the bacterial inoculum and antimicrobial agents were added simultaneously in the plates. The range of concentrations of antimicrobial agents was 0-500 μg/ml NP108 and 0-320 μg/ml cysteamine against the Gram-negative bacteria P. aeruginosa ATCC BAA-47 and 0-1000 μg/ml NP108 and 0-320 μg/ml cysteamine against the Gram-positive MRSA.

P. aeruginosa DSMZ1128 [11] = settings: DSMZ1128, pH 7
[12] = system: P. aeruginosa ATCC BAA-47; experiment: microbe, parasite or virus in culture; type: cell-based, Pseudomonas aeruginosa; settings: ATCC BAA-47, 24 h; for MIC pH5.5, 320 mM NaCl, P. aeruginosa ATCCBAA-47 / MIC pH5.5, P. aeruginosa ATCCBAA-47: pH 5.5
Description: as §1, §3, §4, §5

| Structure (SMILES) | MBC following MIC at pH 7, P. aeruginosa DSMZ1299 (P. aeruginosa DSMZ1299 [1]) | MBC at pH5.5, P. aeruginosa ATCCBAA-47 [2] [μg/ml] | MBC pH5.5, 320 mM NaCl, P. aeruginosa ATCCBAA-47 [2] [μg/ml] | MBC following MIC at pH 7, P. aeruginosa ATCCBAA-47 [2] [μg/ml] | MBC following MIC at pH 7, S. aureus ATCC25923 (S. aureus ATCC25923 [3]) [μg/ml] | MIC at pH 7, S. aureus ATCC25923 (S. aureus ATCC25923 [4]) [μg/ml] | MBC at pH5.5, S. aureus 11729 [5] [μg/ml] | MBC pH5.5, 320 mM NaCl, S. aureus 11729 [5] [μg/ml] | MBC following MIC at pH 7, S. aureus DSMZ11729 [5] | MBC following MIC at pH 7, S. epidermidis ATCC12228 (S. epidermidis ATCC12228 [6]) | MIC at pH 7, S. epidermidis ATCC12228 (S. epidermidis ATCC12228 [7]) [μg/ml] | MIC at pH 7, P. aeruginosa DSMZ1128 (P. aeruginosa DSMZ1128 [8]) [μg/ml] | MIC at pH 7, P. aeruginosa D5MZ1299 (P. aeruginosa DSMZ1299 [9]) [μg/ml] | MIC pH5.5, 320 mM NaCl, S. aureus 11729 [10] [μg/ml] | MIC pH5.5, S. aureus 11729 [10] [μg/ml] | MIC at pH 7, S. aureus DSMZ11729 [10] [μg/ml] | MBC following MIC at pH 7, P. aeruginosa DSMZ1128 (P. aeruginosa DSMZ1128 [11]) | MIC pH5.5, 320 mM NaCl, P. aeruginosa ATCCBAA-47 [12] [μg/ml] | MIC pH5.5, P. aeruginosa ATCCBAA-47 [12] [μg/ml] | MIC at pH 7, P. aeruginosa ATCCBAA-47 [12] [μg/ml] | further results |
| --- | --- | --- | --- | --- | --- | --- | --- | --- | --- | --- | --- | --- | --- | --- | --- | --- | --- | --- | --- | --- | --- |
| N=C(N)NCCC[C@H](NC(=O)[C@H](CCCCN)NC(=O)[C@@H]1CCCN1C(=O)[C@H](CCCNC(=N)N)NC(=O)[C@H](CCCNC(=N)N)NC(=O)[C@@H]1CCCN1C(=O)[C@H](CCCCN)NC(=O)[C@H](CCCNC(=N)N)NC(=O)[C@H](CCCNC(=N)N)NC(=O)[C@@H]1CCCN1C(=O)[C@H](CCCCN)NC(=O)[C@@H](N)CCCCN)C(=O)N[C@@H](CCCCN)C(=O)N[C@@H](CCCCN)C(=O)NCCS [NP449, KKPRRKPRRPKRKK-cysteamine] (H-KKPRRKPRRPKRKK-Cysteamide; N-terminus assumed) | 250 (2) μg/ml | >500 | >500 | >500 | >500 | 250 | >500 | >500 | 250 μg/ml | 125 μg/ml | 31.25 | 250 | 125 | >500 | >500 | 125 | 500 (2) μg/ml | >500 | >500 | 250 | – |
| N=C(N)NCCC[C@H](NC(=O)[C@H](CCCCN)NC(=O)[C@@H]1CCCN1C(=O)[C@H](CCCNC(=N)N)NC(=O)[C@H](CCCNC(=N)N)NC(=O)[C@@H]1CCCN1C(=O)[C@H](CCCCN)NC(=O)[C@H](CCCNC(=N)N)NC(=O)[C@H](CCCNC(=N)N)NC(=O)[C@@H]1CCCN1C(=O)[C@H](Cc1c[nH]cn1)NC(=O)[C@@H](N)Cc1c[nH]cn1)C(=O)N[C@@H](Cc1c[nH]cn1)C(=O)N[C@@H](Cc1c[nH]cn1)C(=O)NCCS [NP451, HHPRRKPRRPKRHH-cysteamine] (H-HHPRRKPRRPKRHH-Cysteamide; N-terminus assumed) | >500 μg/ml | 250 | >500 | >500 | >500 | 500 | >500 | >500 | >500 μg/ml | 125 μg/ml | 125 | >500 | >500 | >500 | >500 | 500 | >500 μg/ml | >500 | >500 | >500 | Exp#3, P. aeruginosa DSMZ1299 (quantity not clearly headed) (P. aeruginosa DSMZ1299 [9]): >500 µg/mL |
| N=C(N)NCCC[C@H](NC(=O)[C@H](CCCNC(=N)N)NC(=O)[C@H](CCCNC(=N)N)NC(=O)[C@H](CCCNC(=N)N)NC(=O)[C@@H](N)CCCNC(=N)N)C(=O)NCCS [NP457, RRRRR-cysteamine] (H-RRRRR-Cysteamide; N-terminus assumed) | >500 μg/ml | >500 | >500 | >500 | 62.5 | 125 | >500 | >500 | 125 (2) μg/ml | 125 (2) μg/ml | 31.25 | >500 | >500 | >500 | >500 | 125 | >500 μg/ml | >500 | >500 | 250 | Exp#3, P. aeruginosa DSMZ1299 (quantity not clearly headed) (P. aeruginosa DSMZ1299 [9]): >500 µg/mL |
| N=C(N)NCCC[C@H](NC(=O)[C@H](CCCNC(=N)N)NC(=O)[C@H](CCCNC(=N)N)NC(=O)[C@H](CCCNC(=N)N)NC(=O)[C@@H](N)CCCNC(=N)N)C(=O)N[C@@H](Cc1c[nH]cn1)C(=O)N[C@@H](Cc1c[nH]cn1)C(=O)NCCS [NP458, RRRRRHH-cysteamine] (H-RRRRRHH-Cysteamide; N-terminus assumed) | >500 μg/ml | >500 | >500 | >500 | 125 | 250 | >500 | >500 | 250 μg/ml | 500 μg/ml | 31.25 | 250 | 125 | >500 | >500 | 250 | >500 μg/ml | >500 | >500 | 62.5 | – |
